From US12076411B2, “Anti-HER2 antibody-maytansine conjugates and methods of use thereof” (priority 2014, dated 2024) come the findings set out here.

For orientation: IC50 means the midpoint of a concentration-inhibition curve. Read a low IC50 as higher potency.

For experiment [1], the system named is NCI-N87 cells. The experiment is described as follows: In vitro cytotoxicity, 6 day assay, Cell Titer-Glo (Example 2). The experiment is classed as cell-based. As to conditions: Homo sapiens, 144 h; NCI-N87, 6 day assay; antibody concentrations except for the free drug. For orientation: ATP-based viability assays read luminescence as a measure of living cells.
Description: (§1) NCI-N87 cells, which overexpress HER2, were used as targets for in vitro cytotoxicity in a 6 day assay.
The HER2-positive breast carcinoma cell line, NCI-N87, was obtained from ATCC and maintained in RPMI-1640 medium (Cellgro) supplemented with 10% fetal bovine serum (Invitrogen) and Glutamax (Invitrogen). 24 h prior to plating, cells were passaged to ensure log-phase growth. On the day of plating, 5000 cells/well were seeded onto 96-well plates in 90 μL normal growth medium supplemented with 10 IU penicillin and 10 μg/mL streptomycin (Cellgro). Cells were treated at various concentrations with 10 μL of diluted analytes, and the plates were incubated at 37° C. in an atmosphere of 5% CO2. After 6 d, 100 μL/well of Cell Titer-Glo reagent (Promega) was added, and luminescence was measured using a Molecular Devices SpectraMax M5 plate reader. GraphPad Prism software was used for data analysis, including IC50 calculations.

In experiment [2] the test system is NCI-N87 cells. The experiment is described as follows: In vitro cytotoxicity, 6 d, Cell Titer-Glo (Example 5). It is filed as cell-based. To be noted: Homo sapiens, 144 h; NCI-N87, 6 d.
Description: The HER2-positive gastric carcinoma cell line, NCI-N87, was obtained from ATCC and maintained in RPMI-1640 medium (Cellgro) supplemented with 10% fetal bovine serum (Invitrogen) and Glutamax (Invitrogen). 24 h prior to plating, cells were passaged to ensure log-phase growth. On the day of plating, 5000 cells/well were seeded onto 96-well plates in 90 μL normal growth medium supplemented with 10 IU penicillin and 10 μg/mL streptomycin (Cellgro). […] After 6 d, 100 μL/well of Cell Titer-Glo reagent (Promega) was added, and luminescence was measured using a Molecular Devices SpectraMax M5 plate reader. GraphPad Prism software was used for data analysis.
In experiment [3] the test system is NCI-N87 cells. The experiment is described as follows: In vitro cytotoxicity, 6 day assay, Cell Titer-Glo (Example 1). As to conditions: Homo sapiens, NCI-N87, 144 h.
Description: as §1
24 h prior to plating, cells were passaged to ensure log-phase growth. On the day of plating, 5000 cells/well were seeded onto 96-well plates in 90 μL normal growth medium supplemented with 10 IU penicillin and 10 μg/mL streptomycin (Cellgro). Cells were treated at various concentrations with 10 μL of diluted analytes, and the plates were incubated at 37° C. in an atmosphere of 5% CO2. After 6 d, 100 μL/well of Cell Titer-Glo reagent (Promega, Madison, WI) was added, and luminescence was measured using a Molecular Devices SpectraMax M5 plate reader. GraphPad Prism software was used for data analysis, including IC50 calculations.

The structures appear in SMILES notation.

As for `COc1cc2cc(c1Cl)N(C)C(=O)C[C@H](OC(=O)[C@H](C)N(C)C(C)=O)[C@]1(C)O[C@H]1[C@H](C)[C@@H]1C[C@@](O)(NC(=O)O1)[C@H](OC)/C=C/C=C(\C)C2` [free maytansine, maytansine], the half-inhibitory concentration (IC50) with NCI-N87 cells [1] came to 0.25 nM; in the experiment on NCI-N87 cells [2] it was 0.35 nM; in the experiment with NCI-N87 cells [3] it was 0.214 nM.
